The values that follow come from patent US4888336A, “Steroid 5-alpha-reductase inhibitors” (SmithKline Beckman Corporation, priority 1987, dated 1989).

The target in experiment [1] is T1, human steroid 5-alpha-reductase (Homo sapiens, UniProt P31213).
T1 construct: Prostatic particles were obtained by differential centrifugation; from tissue; host or cells: hyperplastic human prostate, washed 140,000×g particulate fraction
T1 sequence (P31213 1-254): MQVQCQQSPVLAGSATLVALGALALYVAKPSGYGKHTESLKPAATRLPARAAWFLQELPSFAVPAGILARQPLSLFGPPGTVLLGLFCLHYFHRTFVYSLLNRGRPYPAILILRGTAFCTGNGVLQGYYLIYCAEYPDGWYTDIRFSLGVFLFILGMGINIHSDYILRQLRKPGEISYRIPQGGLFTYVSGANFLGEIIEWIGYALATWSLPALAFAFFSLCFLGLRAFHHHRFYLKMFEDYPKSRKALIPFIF
The experiment can be described thus: Inhibition of human prostatic steroid 5-alpha-reductase ([14C]-testosterone conversion, Dixon plot). It counts as biochemical. The protocol:
In determining potency in inhibiting the human enzyme, the following procedure was employed:
The tissue was homogenized in 3 to 5 volumes of 20 mM potassium phosphate, pH 6.5, buffer containing 0.33 M sucrose, 1 mM dithiothreitol, and 50 μM NADPH with a Brinkmann Polytron (Sybron Corporation, Westbury, N.Y.).
The resulting pellet was suspended in 20 mM potassium phosphate buffer, pH 6.5, containing 20% glycerol, 1 mM dithiothreitol, and 50 μM NADPH. The suspended particulate solution was stored at -80° C.
After incubating the solution at 37° C. for 20 to 30 minutes the reaction was quenched by the addition of 4 ml ethyl acetate and 0.25 μmol each of testosterone, dihydrotestosterone, androstanediol, and androstanedione as carriers. The organic layer was removed to a second test tube and evaporated to dryness in a Speed Vac. […] The radiochemical content in the bands of the substrate and the products was determined with a BIOSCAN Imaging Scanner (Bioscan, Inc., Washington, D.C.). The percent of recovered radiolabel converted to product was calculated, from which enzyme activity was determined. All incubations were conducted such that no more than 12% of the substrate (testosterone) was consumed.
The experimentally obtained data was computer fitted to a linear function by plotting the reciprocal of the enzyme activity (1/velocity) against the variable inhibitor concentration (Dixon, M. (1953), Biochem. J., 55, 170). Assuming that the steroidal inhibitor is a competitive inhibitor against testosterone, a value for the inhibition constant (Ki) can be calculated from equation 1: […]

Experiment [2] has as its system steroid 5-alpha-reductase. Briefly: In vivo inhibition of steroid 5-alpha-reductase: T and DHT levels in rat ventral prostate, 6 hours after oral dosing (Table III). On the set-up: species or system Male Charles River CD rats. The conditions noted are these: for DHT level / T level: ± SEM.
For experiment [3], the system named is Steroid 5-alpha-reductase. The conditions noted are these: cited from earlier work; for Reversibility of inhibition: Table 1; for Inhibition of steroid 5-alpha-reductase, in words: literature description.
Experiment [4] concerns 5-alpha-reductase. Briefly: Time course of in vivo 5-alpha-reductase inhibition: T and DHT in rat ventral prostate (Table IV). Also noted: species or system rats. As to conditions: for DHT level / T level: ventral prostate, mean + SEM; for DHT level: ** P < .05; for T level: listed as name T not given.
[5] abbreviates: human hyperplastic prostate particulate, pH 5.0, 37° C., read-out: Ki.
Where [6] appears, read: read-out: K1 (5-alpha-Reductase Inhibitors).

Like-named read-outs stand apart in the source and are kept apart here.

Take `C[C@@H](CO)[C@H]1CCC2=C3CC[C@H]4N(C)C(=O)CC[C@]4(C)[C@H]3CC[C@@]21C` [(1)]: the Ki in experiment [1] came out at 0.45 ± 0.02 µM.

For the compound `C[C@@H](C(=O)O)[C@H]1CCC2=C3CC[C@H]4N(C)C(=O)CC[C@]4(C)[C@H]3CC[C@@]21C` [(2)], the Ki in experiment [1] (setting [5]) is 0.1 ± 0.01 µM.

For `CC(C)N(C(=O)[C@H]1CCC2=C3CC[C@H]4N(C)C(=O)CC[C@]4(C)[C@H]3CC[C@@]21C)C(C)C` [(3)], the Ki in experiment [1] (setting [5]) worked out at 0.008 ± 0.002 µM.

On to `C[C@@H](CO)[C@H]1CCC2=C3CC[C@H]4N(C)C(=O)CC[C@]4(C)[C@H]3CC[C@@]21C` [(20R)-Hydroxymethyl-4-methyl-4-aza-5-alpha-8(14)-pregnen-3-one], for which, in experiment [2] (5 mg/kg oral), the T/DHT is 0.72, the DHT level is listed as 0.72 ± .21 ng/100 mg ventral prostate tissue and the T level is 0.52 ± .27 ng/100 mg ventral prostate tissue. In experiment [2] (10 mg/kg oral), the T/DHT worked out at 0.83, the DHT level was 0.53 ± .12 ng/100 mg ventral prostate tissue and the T level is given as 0.44 ± .13 ng/100 mg ventral prostate tissue. In addition, in experiment [2] (20 mg/kg oral), the T/DHT was 0.92, the DHT level is recorded as 0.49 ± .14 ng/100 mg ventral prostate tissue and the T level is on record as 0.45 ± .12 ng/100 mg ventral prostate tissue.

Consider `CC(=O)C1CCC2C3CC=C=CC(=O)CCC(=O)C3CCC12C` (stereo not shown) [(2)], for which the Reversibility of inhibition result in experiment [3] is listed as “Irreversible”. Besides, in experiment [3] (setting [6]), the Ki is 1 µM.

With `CCN(CC)C(=O)[C@H]1CC[C@H]2[C@@H]3CC[C@H]4N(C)C(=O)CC[C@]4(C)[C@H]3CC[C@]12C` [(4)], the Reversibility of inhibition entry in experiment [3] is given as “Reversible”. In addition, the Ki in experiment [3] (setting [6]) is 0.005 µM.

`C[C@@H](C(=O)O)[C@H]1CCC2=C3CC[C@H]4N(C)C(=O)CC[C@]4(C)[C@H]3CC[C@@]21C` [4-Methyl-4-aza-5-alpha-8(14)-pregnen-3-one-(20R)-20-carboxylic acid]: in experiment [2] (5 mg/kg oral), the T/DHT came out at 0.79, the DHT level is listed as 0.43 ± .12 ng/100 mg ventral prostate tissue and the T level was 0.34 ± .11 ng/100 mg ventral prostate tissue. In addition, in experiment [2] (10 mg/kg oral), the T/DHT amounted to 0.76, the DHT level was 0.34 ± .09 ng/100 mg ventral prostate tissue and the T level is reported as 0.26 ± .07 ng/100 mg ventral prostate tissue. For the same compound, in experiment [2] (20 mg/kg oral), the T/DHT came to 0.88, the DHT level was 0.34 ± .06 ng/100 mg ventral prostate tissue and the T level is on record as 0.30 ± .04 ng/100 mg ventral prostate tissue.

As to `C[C@]12CC[C@H]3[C@@H](CCC4=CC(=O)CC[C@@]43C)[C@@H]1CC[C@@H]2C(=O)O` [(1)], in experiment [3], the Reversibility of inhibition result is reported as “Reversible”. For the same compound, the Ki in experiment [3] (setting [6]) was 1.1 µM.

Turning to `CC(C)N(C(=O)[C@H]1CCC2=C3CC[C@H]4N(C)C(=O)CC[C@]4(C)[C@H]3CC[C@@]21C)C(C)C` [4-Methyl-4-aza-5-alpha-8(14)-androsten-3-one-17β-N,N-diisopropylcarboxamide], the T/DHT in experiment [4] (1 Hour) is 1.00; in experiment [4] (2 Hours) it was “.97”; in experiment [4] (4 Hours), 1.20; in experiment [4] (8 Hours), 1.13. The DHT level result is given as “.532 ± .08 ng/100 mg tissue” in experiment [4] (1 Hour), “.496 ± .05 ng/100 mg tissue” in experiment [4] (2 Hours), “.504 ± .09 ng/100 mg tissue” in experiment [4] (4 Hours) and “.498 ± .04 ng/100 mg tissue” in experiment [4] (8 Hours). Moreover, the T level entry in experiment [4] (1 Hour) was “.533 ± .15 ng/100 mg tissue”; in experiment [4] (2 Hours) it was “.481 ± .12 ng/100 mg tissue”; in experiment [4] (4 Hours) it was “.607 ± .24 ng/100 mg tissue”; in experiment [4] (8 Hours), “.565 ± .16 ng/100 mg tissue”. Further, the “Difference in DHT levels compared to controls, in words” value in experiment [4] (at 1, 2, 4, and 8 hours, P < .05) was “significant differences in DHT levels”.

As for `CC(CO)[C@H]1CC[C@H]2[C@@H]3CC[C@H]4C(=[N+]=[N-])C(=O)CC[C@]4(C)[C@H]3CC[C@]12C` (stereo partly shown) [(3)], in experiment [3], the Reversibility of inhibition result is “Irreversible” and the “Inhibition of steroid 5-alpha-reductase, in words” value was “potent, time-dependent inhibitor”. In addition, in experiment [3] (line (3) printed without unit, read-out: K1 (5-alpha-Reductase Inhibitors), unit inferred), the Ki is 0.035 µM.

With `C=C1C[C@@H]2[C@H](CC[C@@]3(C)[C@H]2CC[C@]3(OC(C)=O)C(C)=O)[C@@]2(C)CCC(=O)C=C12` [(5)], in experiment [3], the Reversibility of inhibition entry is listed as “Irreversible” and the “Inhibition of steroid 5-alpha-reductase, in words” value is reported as “time-dependent inactivator”. Moreover, the Ki in experiment [3] (setting [6]) was 1.25 µM.
